The values that follow come from paper doi:10.1101/2022.03.05.483025v1 (biorxiv, 2022).

Structures are written as SMILES. Like-named read-outs stand apart in the source and are kept apart here. Bounds are passed on as bounds.

In assay [1] the target is T1, MERS-CoV Mpro (Betacoronavirus England 1, UniProt K9N7C7). The assay is described as follows: biochemical.
For assay [2], the target named is T2, SARS-CoV-1 Mpro (Severe acute respiratory syndrome-related coronavirus, UniProt P0C6X7). Put plainly: biochemical.
In assay [3] the target is T3, SARS-CoV-2 Mpro (Severe acute respiratory syndrome coronavirus 2, UniProt P0DTD1). The assay is described as follows: rhodamine-based substrate peptide activity assay. Type of assay: biochemical.
Assay [4] addresses T1, MERS-CoV Mpro. Put plainly: biochemical. This is another data set of the same source.
Assay [5] addresses T4, HCoV-229E Mpro (Human coronavirus 229E, UniProt P0C6X1). Put plainly: biochemical.
Target sequence in this assay (P0C6X1 2966-3267 limits assumed): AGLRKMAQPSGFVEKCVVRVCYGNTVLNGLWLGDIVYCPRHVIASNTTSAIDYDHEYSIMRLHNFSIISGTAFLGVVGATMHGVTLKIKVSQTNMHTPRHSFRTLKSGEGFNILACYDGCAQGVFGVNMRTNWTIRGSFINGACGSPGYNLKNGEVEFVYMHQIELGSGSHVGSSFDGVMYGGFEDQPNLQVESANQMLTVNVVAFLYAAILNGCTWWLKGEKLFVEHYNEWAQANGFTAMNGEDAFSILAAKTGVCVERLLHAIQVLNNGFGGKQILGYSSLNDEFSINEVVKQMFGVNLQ
For assay [6], the target named is T5, PorCoV-HKU15 Mpro (Porcine coronavirus HKU15, UniProt H9BQY4). To be noted: covalent.
Assay [7] deals with T3, SARS-CoV-2 Mpro. Put plainly: biochemical.
For assay [8], the target named is T6, HCoV-HKU1 Mpro (Human coronavirus HKU1 (isolate N1), UniProt P0C6X2). The assay is described as follows: biochemical.
Target sequence in this assay (P0C6X2 3335-3637 limits assumed): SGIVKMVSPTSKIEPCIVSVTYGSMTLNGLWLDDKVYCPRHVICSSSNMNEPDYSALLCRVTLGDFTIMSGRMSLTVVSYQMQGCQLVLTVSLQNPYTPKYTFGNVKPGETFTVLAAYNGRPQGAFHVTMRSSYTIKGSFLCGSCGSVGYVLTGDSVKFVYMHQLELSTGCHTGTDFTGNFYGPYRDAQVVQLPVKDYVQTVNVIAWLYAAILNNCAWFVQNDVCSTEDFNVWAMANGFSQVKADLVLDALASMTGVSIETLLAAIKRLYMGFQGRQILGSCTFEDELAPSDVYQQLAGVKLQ
The target of assay [9] is T7, HCoV-NL63 Mpro (Human coronavirus NL63, UniProt P0C6X5). The assay is described as follows: biochemical.
Target sequence in this assay (P0C6X5 2940-3242 limits assumed): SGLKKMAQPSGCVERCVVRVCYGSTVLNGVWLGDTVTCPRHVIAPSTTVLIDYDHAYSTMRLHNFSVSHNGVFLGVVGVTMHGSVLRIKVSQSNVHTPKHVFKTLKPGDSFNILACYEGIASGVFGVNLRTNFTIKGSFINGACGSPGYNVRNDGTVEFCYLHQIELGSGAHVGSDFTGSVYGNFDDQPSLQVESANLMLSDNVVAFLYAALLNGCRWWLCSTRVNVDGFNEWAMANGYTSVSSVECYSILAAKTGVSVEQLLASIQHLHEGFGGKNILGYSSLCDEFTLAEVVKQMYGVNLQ
In assay [10] the target is T3, SARS-CoV-2 Mpro. Put plainly: biochemical. This is another data set of the same source.
Assay [11] addresses T6, HCoV-HKU1 Mpro. Put plainly: biochemical. This is another data set of the same source.
Target sequence in this assay (P0C6X2 3335-3637): as the sequence (P0C6X2 3335-3637 limits assumed) above
In assay [12] the target is T1, MERS-CoV Mpro. The assay is described as follows: biochemical. This is another data set of the same source.
Assay [13] addresses T4, HCoV-229E Mpro. The assay is described as follows: biochemical. This is another data set of the same source.
Target sequence in this assay (P0C6X1 2966-3267): as the sequence (P0C6X1 2966-3267 limits assumed) above
Assay [14] deals with T7, HCoV-NL63 Mpro. Put plainly: biochemical. The source holds these as a separate data set.
Target sequence in this assay (P0C6X5 2940-3242): as the sequence (P0C6X5 2940-3242 limits assumed) above
Assay [15] concerns the target T5, PorCoV-HKU15 Mpro. The conditions noted are these: covalent. This is another data set of the same source.
Assay [16] deals with T3, SARS-CoV-2 Mpro. Put plainly: Mpro substrate activity assay. Type of assay: biochemical.
Assay [17] deals with T4, HCoV-229E Mpro. The assay is described as follows: RapidFire MS substrate peptide activity assay. Type of assay: biochemical.
Target sequence in this assay (P0C6X1 2966-3267): as the sequence (P0C6X1 2966-3267 limits assumed) above
For assay [18], the target named is avian infectious bronchitis virus (IBV) Mpro (Avian infectious bronchitis virus (strain Beaudette), UniProt P0C6Y1). Put plainly: RapidFire MS substrate peptide activity assay. Type of assay: biochemical.
Assay [19] concerns the target T2, SARS-CoV-1 Mpro. The assay is described as follows: biochemical. This is another data set of the same source.
In assay [20] the target is T3, SARS-CoV-2 Mpro. The assay is described as follows: RapidFire MS substrate peptide activity assay. Type of assay: biochemical.
In assay [21] the target is T6, HCoV-HKU1 Mpro. The assay is described as follows: RapidFire MS substrate peptide activity assay. Type of assay: biochemical.
Target sequence in this assay (P0C6X2 3335-3637): as the sequence (P0C6X2 3335-3637 limits assumed) above
Assay [22] concerns the target HCoV-OC43 Mpro (Human coronavirus OC43, UniProt P0C6X6). The assay is described as follows: RapidFire MS substrate peptide activity assay. Type of assay: biochemical.
Assay [23] addresses T7, HCoV-NL63 Mpro. The assay is described as follows: RapidFire MS substrate peptide activity assay. Type of assay: biochemical.
Target sequence in this assay (P0C6X5 2940-3242): as the sequence (P0C6X5 2940-3242 limits assumed) above
[24] abbreviates: read-out: HW-1-87A (trans), covalent.
Setting [25] is: read-out: PM-2-20A (trans), covalent.
Setting [26] is: read-out: PM-2-27A (trans), covalent.
The mark [27] stands for this setting: read-out: hidden head, 8th column, covalent.

T1 sequence (K9N7C7 3248-3553 limits assumed): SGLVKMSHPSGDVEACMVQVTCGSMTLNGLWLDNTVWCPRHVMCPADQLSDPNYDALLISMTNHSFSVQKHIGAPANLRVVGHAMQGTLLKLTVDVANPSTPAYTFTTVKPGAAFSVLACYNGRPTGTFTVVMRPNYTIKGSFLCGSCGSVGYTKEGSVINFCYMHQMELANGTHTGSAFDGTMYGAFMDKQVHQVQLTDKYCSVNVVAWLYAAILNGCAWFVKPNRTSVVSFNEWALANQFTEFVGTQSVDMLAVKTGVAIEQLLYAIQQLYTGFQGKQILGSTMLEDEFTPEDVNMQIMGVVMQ
T5 sequence (H9BQY4 2509-2811 limits assumed): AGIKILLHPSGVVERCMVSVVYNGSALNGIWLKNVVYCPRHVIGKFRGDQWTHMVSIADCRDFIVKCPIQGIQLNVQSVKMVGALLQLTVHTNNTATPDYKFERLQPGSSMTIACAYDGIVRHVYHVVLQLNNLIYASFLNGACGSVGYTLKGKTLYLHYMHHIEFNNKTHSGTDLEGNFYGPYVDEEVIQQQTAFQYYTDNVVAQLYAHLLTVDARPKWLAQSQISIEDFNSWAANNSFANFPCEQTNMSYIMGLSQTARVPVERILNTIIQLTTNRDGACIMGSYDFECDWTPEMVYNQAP
Chain of HCoV-OC43 Mpro (P0C6X6 3247-3549): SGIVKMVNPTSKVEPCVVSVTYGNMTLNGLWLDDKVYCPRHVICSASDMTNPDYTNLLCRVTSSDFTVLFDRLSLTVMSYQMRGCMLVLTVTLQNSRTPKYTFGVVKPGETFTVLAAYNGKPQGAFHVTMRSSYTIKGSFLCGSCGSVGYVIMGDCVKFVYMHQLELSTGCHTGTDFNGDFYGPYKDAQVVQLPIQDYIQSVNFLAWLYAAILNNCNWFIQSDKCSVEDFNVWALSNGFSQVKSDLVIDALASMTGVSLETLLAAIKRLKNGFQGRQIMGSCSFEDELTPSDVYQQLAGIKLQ
Chain of avian infectious bronchitis virus (IBV) Mpro (P0C6Y1 2780-3086): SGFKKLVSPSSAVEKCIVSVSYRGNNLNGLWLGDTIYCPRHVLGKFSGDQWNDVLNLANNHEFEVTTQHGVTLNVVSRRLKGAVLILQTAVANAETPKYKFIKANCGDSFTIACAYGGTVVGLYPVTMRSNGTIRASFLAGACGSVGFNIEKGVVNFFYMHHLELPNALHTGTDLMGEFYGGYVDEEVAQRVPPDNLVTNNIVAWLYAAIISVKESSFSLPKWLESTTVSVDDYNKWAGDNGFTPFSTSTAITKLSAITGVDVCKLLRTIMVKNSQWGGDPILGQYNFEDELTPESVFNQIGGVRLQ

Take `O=C(CCl)N1N=C(c2ccccc2)CC1c1cccc2nccnc12` (racemic) [EN82]: the figures for the IC50 in assay [1], in assay [2] and in [3] were 0.56 µM, 0.059 µM and 0.091 µM, respectively.
In the case of `O=C(CCl)N1N=C(c2ccccc2)[C@H](c2ccccc2)[C@H]1c1ccc2nccnc2c1` (relative stereo) [HW-1-87A (trans)], the IC50 was 0.34 µM in assay [4] (setting [24]); 0.03 µM in assay [5] (setting [24]); 4.9 µM in assay [6] (read-out: HW-1-87A (trans)); 0.085 µM in assay [7] (setting [24]); 0.04 µM in [8] (setting [24]); 0.14 µM in assay [9] (setting [24]).
In the case of `O=C(CCl)N1N=C(c2ccccc2)[C@H](c2ccccc2)[C@@H]1c1ccc2nccnc2c1` (relative stereo) [HW-1-187B, cis-HW-1-187B], the IC50 in assay [10] stood at 0.0014 µM; in assay [11], 0.016 µM; in assay [3], 0.022 µM; in [12], 1.3 µM; in assay [13], 0.0023 µM; in assay [14], 0.056 µM. The IC50 in assay [15] (read-out: HW-1-187B (cis)) was determined as 6.3 µM.
`O=C(CCl)N1N=C(c2cc(Cl)ccc2F)[C@H](c2ccccc2)[C@@H]1c1ccc2nccnc2c1` (relative stereo) [HW-2-010B] registered an IC50 in assay [3] of 0.014 µM.
On to `O=C(CCl)N1N=C(c2ccccc2)[C@H](c2ccccc2)[C@H]1c1ccccc1` (relative stereo) [PM-2-20A (trans)], for which the IC50 came to 3.7 µM in [4] (setting [25]); 0.0036 µM in assay [5] (setting [25]); 4.8 µM in assay [6] (read-out: PM-2-20A (trans)); 0.028 µM in assay [7] (setting [25]); 0.036 µM in [8] (setting [25]); 0.067 µM in assay [9] (setting [25]).
Regarding `O=C(CCl)N1N=C(c2ccccc2)[C@H](c2ccccc2)[C@@H]1c1ccccc1` (relative stereo) [PM-2-020B, cis-PM-02-020B], the IC50 in assay [10] came out at 0.0053 µM; in [11], 0.2 µM; in assay [3] it was 0.062 µM; in assay [12], 2.8 µM; in assay [13], 0.023 µM; in assay [14], 0.35 µM. In assay [15] (read-out: PM-2-20B (cis)), the IC50 amounted to 1.1 µM.
Consider `O=C(CCl)N1N=C(c2ccccc2)[C@H](c2ccccc2)[C@H]1c1cccc2nccnc12` (relative stereo) [PM-2-27A (trans)], for which the IC50 stood at 3.3 µM in [4] (setting [26]); 0.046 µM in assay [5] (setting [26]); 5.4 µM in assay [6] (read-out: PM-2-27A (trans)); 0.11 µM in assay [7] (setting [26]); 0.06 µM in assay [8] (setting [26]); 0.092 µM in assay [9] (setting [26]).
`C=CS(=O)(=O)N1N=C(c2cc(Cl)ccc2F)[C@H](c2ccccc2)[C@@H]1c1ccc2nccnc2c1` (relative stereo) [PM-2-071B] showed an IC50 in assay [3] of 0.091 µM.
`O=C(CCl)N1N=C(c2ccccc2)C[C@H]1c1cccc2nccnc12` [(S)-EN82] came in with an IC50 in assay [16] of 2.7 µM.
`C=CS(=O)(=O)N1N=C(c2cc(Cl)ccc2F)[C@@H](c2ccccc2)[C@H]1c1ccc2nccnc2c1` [(S,S)-PM-2-071, (S,S)-enantiomer of PM-2-071B]: in assay [3], the IC50 stood at 0.035 µM.
Take `O=C(CCl)N1N=C(c2cccc(Cl)c2)CC1c1cccc2nccnc12` (stereo not drawn) [LEB-2-172]: the IC50 amounted to 0.038 µM in assay [4]; 0.0055 µM in assay [5]; 0.00089 µM in assay [7]; 0.00096 µM in [8]; 0.011 µM in assay [9].
As for `O=C(CCl)N1N=C(c2cc(F)cc(Cl)c2)CC1c1cccc2nccnc12` (stereo not drawn) [LEB-3-004], the IC50 in assay [4] amounted to 0.1 µM; in assay [5], 0.0053 µM; in assay [6] (read-out: LEB-3-004), 2.1 µM; in assay [7], 0.0016 µM; in assay [8] it was 0.0023 µM; in assay [9] it was 0.025 µM.
In the case of `O=C(CCl)N1N=C(c2ccccc2)CC1c1cccnc1` (stereo not drawn) [NJH-1-147], the IC50 in assay [4] is 7.2 µM; in assay [5], 0.054 µM; in assay [6] (read-out: hidden head, 7th column), 11 µM; in assay [7], 0.058 µM; in assay [8] it was 0.026 µM; in assay [9], 0.33 µM.
For `O=C(CCl)N1N=C(c2ccccc2)CC1c1ccnc2[nH]ccc12` (stereo not drawn) [NJH-1-159], the IC50 in assay [4] (setting [27]) amounted to 0.96 µM; in assay [5] (setting [27]), 0.019 µM; in [6] (read-out: hidden head, 8th column) it was 9.3 µM; in assay [7] (setting [27]), 0.02 µM; in [8] (setting [27]) it was 0.0089 µM; in assay [9] (setting [27]), 0.11 µM.
In the case of `C=CS(=O)(=O)N1N=C(c2cc(Cl)ccc2F)C(c2ccccc2)C1c1ccc2nccnc2c1` (stereo not drawn) [PM-2-071], the IC50 in assay [17] was < 1 µM; in [18] it was < 1 µM; in [19] it was < 1 µM; in [20], < 0.002 µM; in assay [21], < 0.002 µM; in [22], < 0.002 µM. Moreover, the IC50 in assay [23] was < 1 µM.
